{"source": "patent US20230022117A1", "about": "“RNAi-BASED TARGETING COMPOUNDS AND USES THEREOF TO PREVENT ACQUIRED HEARING LOSS” (MUSC FOUNDATION FOR RESEARCH DEVELOPMENT, priority 2019, published 2023)", "type_in_all_cases": "in vivo, mouse", "key": {"CBA/J mice [1]": {"test_system": "CBA/J mice", "experiment": "Cisplatin-plus-furosemide-induced hearing loss: ABR threshold shifts", "conditions": "CDDP 2.5-4 mg/kg plus furosemide 200 mg/kg IP; measured on day 7 and on day 14 post treatment"}, "[2]": {"experiment": "Body weight and survival with CDDP treatment", "description": "There is no difference in auditory threshold shifts between CDDP 2.5-4 mg/kg with 55-60 dB shifts when measured on day 7 and on day 14 post treatment. […] This model was used to test the effect of AMPKα siRNA.\nBody weight was measured before treatment, on treatment days, and 7 and 14 d post treatment. […] Data are presented as means±SD. CDDP2 mg/kg: n=2, CDDP 2.5 mg/kg: n=5, CDDP 3 mg/kg: n=2, CDDP 4 mg/kg: n=3."}, "CBA/J mice [3]": {"test_system": "CBA/J mice", "experiment": "Kanamycin-plus-furosemide-induced hearing loss: ABR threshold shifts", "conditions": "8, 16, and 32 kHz; for hearing loss / auditory threshold shifts (in words): single treatment, KM 800 mg/kg SQ and/or Fu 200 mg/kg IP, 14 d after the injections; for KM-furosemide-induced auditory threshold shifts: 14 d after the injection"}, "CaMKKβ": {"test_system": "CaMKKβ", "experiment": "Silencing efficiency: CaMKKβ immunolabeling in OHCs after siRNA delivery", "conditions": "basal turn, 22-32 kHz", "description": "(§1) siCaMKKβ (Thermo Fisher, #n437808) (sense: […] SEQ ID NO: 1; antisense […] SEQ ID NO: 2) or siControl (Thermo Fisher, #4390844) was locally delivered via intra-tympanic application onto the RWM as previously described (Oishi et al., 2013; Hill et al., 2016) or via PSC to the endolymph based on reports (Guo, 2018 #3975; Tao, 2018 #3973). Briefly, after anesthesia, a retroauricular incision was made to approach the temporal bone. For intra-tympanic delivery onto the RWM, the otic bulla was identified ventral to the facial nerve and a shallow hole was made in the thin part of the otic bulla with a 30-G needle and enlarged with forceps to a diameter of 2 mm in order to visualize the round window. […]\nImmunohistochemistry is well accepted as a semi-quantitative methodology when used with careful consideration of the utility and semi-quantitative nature of these assays (Taylor, 2006 #3978; Walker, 2006 #3979). The specificity of antibodies must be first detected by Western blot analysis. Antibodies showing only a single band with the correct molecular weight were used for immunolabeling on surface preparations and quantification of signaling in OHCs. […] The grayscale value was determined in only the hair cells to quantify the change in fluorescence intensity. This procedure provided quantitative measurements that are not confounded by protein expression in other cell types of the cochlea. […]"}, "CBA/J mice [4]": {"test_system": "CBA/J mice", "experiment": "Noise-induced hearing loss (101-dB broad band noise): ABR threshold shifts", "conditions": "pretreatment via intra-tympanic delivery on RWM; 8, 16, and 32 kHz; 14 d after noise exposure; vs siControl", "description": "(§2) Unrestrained CBA/J male mice at the age of 12 weeks (one mouse per stainless steel wire cage, approximately 9 cm^3) were exposed to broad band noise from to 2-20 kHz at 101 dB sound pressure level (SPL) for 2 h to induce permanent threshold shifts with loss of synaptic ribbons and OHCs, but not IHCs, or 106 dB to induce permanent threshold shifts with losses of ribbons, OHCs, and IHCs by 14 d after the noise exposure. […] Audio CD sound files were created and equalized with audio editing software (Audition 3; Adobe Systems, Inc.). The background sound intensity of the environment surrounding the cages was 65 dB as measured with a sound level meter (model 1200; Quest Technologies). Sound levels for noise exposure are calibrated with a sound level meter at multiple locations within the sound chamber to ensure the uniformity of the sound field before and after exposure. Control mice were kept in silence (without use of the loudspeaker) within the same chamber for 2 h. […]\nABRs were measured in the left ears of anaesthetized mice before and two weeks after noise exposure. […] Body temperature was monitored and maintained near 37° C. with a heating pad. […] ABRs were measured at 8, 16, and 32 kHz. […] Thresholds were determined for each frequency by reducing the intensity in 10-dB increments and then in 5-dB steps near threshold until no organized responses were detected. […]"}, "CBA/J mice [5]": {"test_system": "CBA/J mice", "experiment": "Noise-induced hearing loss (101-dB noise): DPOAE thresholds", "conditions": "pretreatment via intra-tympanic delivery on RWM; 12-40 kHz; 14 d after noise exposure"}, "outer hair cells (OHCs) [6]": {"test_system": "outer hair cells (OHCs)", "experiment": "Noise-induced OHC loss: hair cell counts along the cochlear duct", "conditions": "pretreatment via intra-tympanic delivery on RWM; 101-dB noise; 14 d after exposure", "description": "as §2\n(§3) Images from the apex through the base of the DAB-stained preparations were captured using a 20× lens on the Zeiss microscope. The lengths of the cochlear epithelia were measured and recorded in millimeters. OHCs were counted from the apex to the base along the entire length of the mouse cochlear epithelium."}, "IHC synapses": {"test_system": "IHC synapses", "experiment": "Noise-induced loss of IHC synapses: CtBP2/GluA2 counts", "conditions": "pretreatment via intra-tympanic delivery onto the RWM; 101-dB noise; 14 d; loss at 22 and 32 kHz", "description": "as §2, with “exposure.” for “exposure. Control mice were kept in silence (without use of the loudspeaker) within the same chamber for 2 h.”\nA procedure as previously described by Hill et al., 2016 was followed. Immunofluorescence of CtBP2 on surface preparations was quantified from original confocal images, each taken with a 63×-magnification lens under identical Z-stack conditions in […] intervals and equal parameter settings for laser gains and PMT gains. […] The number of synaptic ribbons was counted using ImageJ software (National Institutes of Health, Bethesda, Md.). […]"}, "CBA/J mice [7]": {"test_system": "CBA/J mice", "experiment": "Kanamycin-furosemide-induced damage to OHC function: DPOAE", "conditions": "siRNA pretreatment via PSC; 14 d after the injection"}, "outer hair cells (OHCs) [8]": {"test_system": "outer hair cells (OHCs)", "experiment": "Kanamycin-furosemide-induced OHC loss: hair cell counts", "conditions": "siRNA pretreatment via PSC; 14 d after the lesions", "description": "as §1, with “window. A customized sterile micro medical tube was inserted into the hole just above the round window niche (RWN) to slowly deliver 10 μL (0.6 μg) of siCaMKKβ or siControl. For PSC delivery, the stemocleidomastoid muscle was separated to expose the PSC. A small hole was made with the tip of a 30-G needle on the PSC and left open for about 1 min (there was no obvious endolymph leakage).” for “window.”\nas §3, with “epithelium. […]” for “epithelium.”"}, "[9]": {"test_system": "OHC mechanotransduction channels", "experiment": "FM1-43 uptake into OHCs (mechanotransduction channel function)", "conditions": "siRNA delivered through the PSC 48 h before application of FM1-43", "description": "(§4) Since aminoglycoside antibiotics are known to enter outer hair cells (OHCs) mainly through mechanotransduction channels (MTCs), to address if protective effects of pretreatment with siCaMKKβ is due to blockade of kanamycin and/or furosemide entering OHCs, we assessed OHC MTCs using FM1-43FX, based on prior literature (Meyers et al., 2003; Taylor et al., 2008; Nakanishi et al., 2018). siCaMKKβ was delivered through the posterior semicircular canal (PSC) 48 h before application of FM1-43 to measure MTC function in OHCs. […] Scale bar=10 μm.\nas §4, with “with siAMPKα1” for “with siCaMKKβ”, “2018). siAMPKα” for “2018). siCaMKKβ”"}}}
{"compound": "[NH2][Pt]([NH2])([Cl])[Cl]", "note": "[CDDP, cisplatin]", "values": [{"measurement": "auditory threshold shifts", "setting": "CBA/J mice [1]", "value": "55-60 dB"}, {"measurement": "death", "setting": "[2]; 3 mg/kg CDDP treated group, day 8 after the treatment", "value": "One mouse of the 3 mg/kg CDDP treated group died"}, {"measurement": "changes in body weight", "setting": "[2]; CDDP at and above 3 mg/kg, day 7 post treatment vs beginning of the treatment", "value": "loss of body weight"}, {"measurement": "changes in body weight", "setting": "[2]; CDDP at doses below or equal 2.5 mg/kg", "value": "no significant changes"}]}
{"compound": "NC[C@H]1O[C@H](O[C@H]2[C@H](O)[C@@H](O[C@H]3O[C@H](CO)[C@@H](O)[C@H](N)[C@H]3O)[C@H](N)C[C@@H]2N)[C@H](O)[C@@H](O)[C@@H]1O", "note": "[KM, kanamycin, reference compound]", "values": [{"measurement": "hearing loss / auditory threshold shifts (in words)", "setting": "CBA/J mice [3]", "value": "does not induce hearing loss"}]}
{"compound": "NS(=O)(=O)c1cc(C(=O)O)c(NCc2ccco2)cc1Cl", "note": "[furosemide, reference compound]", "values": [{"measurement": "hearing loss / auditory threshold shifts (in words)", "setting": "CBA/J mice [3]", "value": "does not induce hearing loss"}]}
{"compound": "siCaMKKβ: CaMKKβ siRNA (Thermo Fisher, #n437808); sense GAGCACAAAUAAUUGUUUUTT SEQ ID NO: 1; antisense AAAACAAUUAUUUGUGCUCTA SEQ ID NO: 2 (chemistry not given here)", "values": [{"measurement": "decrease of CaMKKβ immunolabeling in grayscale in OHCs compared to siControls", "setting": "CaMKKβ; 72 h after PSC delivery", "value": "about 90%"}, {"measurement": "decrease of CaMKKβ immunolabeling in grayscale in OHCs compared to siControls", "setting": "CaMKKβ; 72 h after intra-tympanic delivery onto the RWM", "value": "about 40%"}, {"measurement": "threshold shifts induced by exposure to 101-dB noise", "setting": "CBA/J mice [4]", "value": "significantly decreases"}, {"measurement": "101-dB-noise-increased DPOAE thresholds", "setting": "CBA/J mice [5]", "value": "significantly attenuates"}, {"measurement": "noise-induced OHC loss", "setting": "outer hair cells (OHCs) [6]", "value": "significantly reduced"}, {"measurement": "noise-induced loss of synapses (CtBP2/GluA2)", "setting": "IHC synapses", "value": "prevented"}, {"measurement": "KM-furosemide-induced auditory threshold shifts", "setting": "CBA/J mice [3]; siRNA pretreatment via PSC", "value": "completely prevented"}, {"measurement": "KM-furosemide-induced auditory threshold shifts", "setting": "CBA/J mice [3]; siRNA pretreatment via intra-tympanic delivery onto the RWM", "value": "significant reduction"}, {"measurement": "KM-furosemide-induced reduction of DPOAE (damage to OHC function)", "setting": "CBA/J mice [7]", "value": "completely prevented"}, {"measurement": "KM-furosemide-induced OHC loss", "setting": "outer hair cells (OHCs) [8]", "value": "completely prevents"}, {"measurement": "FM1-43 uptake into OHCs compared with siControl mice", "setting": "[9]", "value": "does not change"}]}
